Measurements reported in paper PMC6906394, “Radiomodifying action, Pharmacokinetic and Biodistribution of Ethyl 3, 4, 5-trihydroxybenzoate-Implication in development of radiomitigator” (Scientific Reports, 2019).
“Also recorded” adds a separate entry of the source.

Tests used:
[1] = Stability of GAE in mice plasma and liver homogenate (QC samples); assay type: in vitro ADME; settings: for Stability % Long term: 2 week of storage at −20 °C; for freeze-thaw stability (fraction remaining) at 50 ng/mL / freeze-thaw stability (fraction remaining) at 250 ng/mL / freeze-thaw stability (fraction remaining) at 500 ng/mL: mouse, three consecutive freeze thaw cycles (−20 °C to room temperature)
Method: The recovery of GAE at three concentration was 79.3, 89.6 and 99.2% in plasma. […] The analyte were also shown to be stable in the plasma at room temperature for atleast 8 h with a reduction of less than 12–15% (Table 1). Based on the result reliable, reproducible and robust method has been developed and validated.
Standard stock solutions of GAE at 1 mg/mL were prepared and dissolved in appropriate amounts of diluent stock, water, and methanol (8:2 v/v). GAE was adequately diluted with diluent stock to give an intermediate solution at 100 µg/mL for each analyte. GAE calibration standards were at concentration of 5, 10, 20, 30, 40, 50, 100, 250, 500 ng/mL. Internal standard propyl gallate (PG) were prepared to spiked aliquots of blank mouse plasma (200 µL). […] combined spiking solution at a final concentration of 5, 10, 20, 40, 50, 100, 250, 500 and 1000 ng/mL were prepared and used to spike aliquots of blank tissue homogenates of Liver, kidney, heart, brain, and spleen (400 µL). The entire sample was stored at 4 °C. Quality control samples were prepared independently in the same biological matrices (plasma and tissue homogenate of liver) stored at −20 °C until use with each analytical run. Intra-day and inter-day precision were assessed by using six replicate QC samples at three levels of GAE included in each run to determine the accuracy and precision. […] The inter-day accuracy and precision were assessed by analyzing three batches on different days. The recoveries of GAE from plasma and tissue (liver) homogenate samples were done at three QC levels. The recovery of the analyte was calculated by comparing the analyte peaks of extracted QC samples against the equivalent aqueous solution.
The QC samples were kept at room temperature for 6 h and a freeze-thaw cycle (−80 °C) was repeated for three times. […] For all storage conditions, replication of three concentrations was analyzed after the operation and the experimental result was obtained through a chromatographic area and compared with the nominal values. On the basis of previous studies reported on pharmacokinetic and biodistribution[22],[23], we standardized and validated our study to further investigate the radiomodifying action of GAE.

NF-kB = assay: Immunofluorescent staining of NF-kB expression in liver and kidney sections; assay type: in vivo, mice; settings: R + GAE group, compared to irradiated group
Method: (§1) Black C57BL/6 male mice weighing 28–30 g were maintained at the Institutional Animal Experimental Facility. Animals were fed according to standard chow diet having free access to food and water ad libitum. The environmental condition was maintained at room temperature (22 ± 2 °C), relative humidity (45–60%) and 12 h dark/light cycle controlled facility. In this study, mice were randomly assigned to four different groups (n = 21) i.e untreated control (UC), GAE-treated (GAE), Radiation + GAE (R + GAE), Radiation group (R). Mice fasted overnight with free access to water before being dosed. Isolated GAE from leaves was dissolved with distilled water and ethanol in (7:3 v/v) and administered orally at a dose of 200 mg/kg body weight to GAE-treated and R + GAE treated groups only. The experiment was carried out in accordance to regulation and guideline of the, Committee for the purpose of control and supervision of Experiments on animals (CPCSEA), and study was approved by Institutional Animal Experimental Committee (IAEC), Institute of Nuclear Medicine & Allied Science, Delhi, India.
Group I untreated control (UC), Group II GAE-treated (GAE), Group III Radiation + GAE (R + GAE) and Group IV Radiation (R) exposed. The GAE was administered orally 15 min post irradiation. […]

[2] = system: whole body 60Co-gamma irradiated mice; assay: Liver and kidney function markers SGOT, SGPT, urea and creatinine after irradiation; assay type: in vivo
Method: as §1
Group I untreated control (UC), Group II GAE-treated (GAE), Group III Radiation + GAE (R + GAE) and Group IV Radiation (R) exposed. The GAE was administered orally 15 min post irradiation. The whole-body radiation (5 Gy) was carried out using Bhabahtron II, Telecobalt machine, Panacea medical technology, Bangalore. The mice exposed at a dose rate of 0.961 Gy/min at field 35 × 35 cm^2 and the distance maintained from the source was 80 cm.
SGOT and SGPT are a biomarker of liver function test used to assess liver function and its damage; whereas, urea and creatinine were used to investigate kidney function and its damage. These biomarkers were analyzed in-vitro by the use of commercially available kits of agape, Kerala, India. The assay were performed according to standard procedure mention in the kit protocol. In-vitro SGOT quantitative determination were based on the reaction of L-aspartate with alpha-ketoglutarate. According to the manufacturer protocol reagent were mix and incubated for 1 minute at 37 °C. The changes in absorbance were recorded per minute during 3 minutes. In-vitro kinetic determination of SGPT were based on the reaction of L-alanine with alpha-ketoglutarate. The reagent were mixed and incubated for 1 minute at 37 °C. the changes in absorbance was recorded per minute during 3 minutes at 340 nm. Urea is in-vitro quantitative determine by the method of Talke et al., 1965. Creatinine were in-vitro determined by kits and it can be measured by quionone pigment photometrically. Reagent were mixed and incubated for 5 minute at 37 °C. the sample absorbance and the standard against the reagent blank were measured at 546 nm.

[3] = R + GAE group (5 Gy, GAE 200 mg/kg oral 15 min post irradiation), 8 h
[4] = R + GAE group (5 Gy, GAE 200 mg/kg oral 15 min post irradiation), 24 h

CCOC(=O)c1cc(O)c(O)c(O)c1 [GAE, Ethyl 3,4,5-trihydroxybenzoate]
reduction after freeze-thaw cycle ([1]; freeze-thaw cycle): less than 8% | Stability % Long term ([1]; liver, 50 ng/mL): 62.6 ± 24.5% | Stability % Short term ([1]; liver, 50 ng/mL, room temperature for 24 h): 66.9 ± 22.18% | Stability % Long term ([1]; liver, 250 ng/mL): 79.26 ± 6.06% | Stability % Short term ([1]; liver, 250 ng/mL, room temperature for 24 h): 86.8 ± 1.7% | Stability % Long term ([1]; liver, 500 ng/mL): 95.13 ± 7.6% | Stability % Short term ([1]; liver, 500 ng/mL, room temperature for 24 h): 99.9 ± 0.47% | freeze-thaw stability (fraction remaining) at 50 ng/mL ([1]; liver homogenate, liver, 50 ng/mL): 0.648 ± 0.049 | freeze-thaw stability (fraction remaining) at 250 ng/mL ([1]; liver homogenate, liver, 250 ng/mL): 0.842 ± 0.025 | freeze-thaw stability (fraction remaining) at 500 ng/mL ([1]; liver homogenate, liver, 500 ng/mL): 0.978 ± 0.049 | freeze-thaw stability (fraction remaining) at 50 ng/mL ([1]; plasma, 50 ng/mL): 0.79 ± 0.0225 | freeze-thaw stability (fraction remaining) at 250 ng/mL ([1]; plasma, 250 ng/mL): 0.901 ± 0.0093 | freeze-thaw stability (fraction remaining) at 500 ng/mL ([1]; plasma, 500 ng/mL): 0.9342 ± 0.0037 | Stability % Long term ([1]; plasma, 50 ng/mL): 70.32 ± 1.37% | Stability % Short term ([1]; plasma, 50 ng/mL, room temperature for 24 h): 79.35 ± 1.37% | Stability % Long term ([1]; plasma, 250 ng/mL): 87.55 ± 0.635% | Stability % Short term ([1]; plasma, 250 ng/mL, room temperature for 24 h): 89.67 ± 1.58% | Stability % Long term ([1]; plasma, 500 ng/mL): 92.01 ± 0.179% | Stability % Short term ([1]; plasma, 500 ng/mL, room temperature for 24 h): 99.25 ± 0.120% | reduction in plasma at room temperature ([1]; plasma, room temperature for at least 8 h): 12–15% | stability at room temperature ([1]; room temperature for 24 h, plasma and tissue samples): stable | stability at −20 °C ([1]; −20 °C for one month): stable | NF-kB positive fluorescence expression (NF-kB): not strong; also recorded: not positive | change of SGOT, SGPT, urea and creatinine in serum compared to irradiated animals not receiving GAE ([2]; GAE 200 mg/kg b.wt oral 15 min post 5 Gy irradiation, P < 0.05): significant reduction | SGOT level [2, 3]: 24.10 ± 2.4 U/L | SGPT level [2, 3]: 36.01 ± 6.1 U/L | urea level [2, 3]: 18.16 ± 0.003 mg/dL | SGOT level [2, 4]: 63.11 ± 6.16 U/L | SGPT level [2, 4]: 62.15 ± 8.63 U/L | creatinine level ([2]; R + GAE group (5 Gy, GAE 200 mg/kg oral 15 min post irradiation), upto 8 h): 1.05 ± 0.04 mg/dL | duration of radiomodifying action ([2]; post irradiation (5 Gy), liver and kidney function biomarkers, efficacy reduced at 24 h): ≤ 8 h
